Literature values in paper PMC3065210 (Inorganic Chemistry, 2011).
Read-outs that look alike come from different tables or passages of the source.

What was measured:
[1] = not given; remark: listed apart in the source

O=C([O-])CN1CCCN2CCN(CCCN(CC(=O)[O-])CC2)CC1.[Cu+2] [Cu-CB-TE2A]
acid inertness half-life (5 M HCl, 90 °C): more than 6 d

C1CNCCN2CCNCCN(C1)CC2.[Cu+2] [Cu-CB-homocyclen]
acid inertness half-life (1 M HCl, 30 °C): 4.8 h

O=C([O-])CN1CCN2CCN(CC1)CCN(CC(=O)[O-])CC2.[64Cu+2] [^64Cu-CB-DO2A]
accumulation in the liver ([1]; 24 h p.i., previously published data (text says mice)): 0.024 ± 0.002 %ID/g
activity in blood ([1]; rats, 24 h, previously published data): 0.011 ± 0.004 %ID/g
tissue associated radioactivity in kidneys ([1]; rats, 24 h p.i., previously published data): 0.064 ± 0.007 %ID/g
liver clearance (percent reduction) ([1]; rats, at 22 or 24 h PI, from published data): 69.5%
kidney clearance ([1]; rats, out to 22 or 24 h PI, from published data): 95.6%
